Measurements reported in PMC12851007 (Angewandte Chemie (International Ed. in English), 2025).
Where a SMILES comes first, the peptide text is derived from it.

Tests used:
[1] = CF dye efflux assay, POPC vesicles; format: biochemical; details: error = SD of fit
Excerpt: (§1) Time-dep endent fluores cence intensit y traces, I (t), were subsequentl y normalized to fractional intensities, If(t), using equation (1). Therein, I 0 is the intensity just before addition of peptide and I ∞ is the constant intensit y after addition of the calibration cockt ail.
(§2) IIf (tt ) = II (tt )−II0II∞ − II0 (1)
(§3) The concentration-dependent fractional intensities just before the addition of the calibration cocktail, If, were then normalized to fractional membrane activities, Y, using equation (2).
(§4) Therein, If,0 is the fractional intensit y just before addition of the calibration cocktail in absence of peptide and I f,∞ is the constant fractional intensity after addition of the calibration cocktail.
(§5) YY = IIf − IIf,0IIf,∞ − IIf,0 (2)
(§6) The fractional membrane activities, Y, were subsequently plotted against the peptide concentration, c, and analysed using the Hill equation (3) to obtain the effective molar concentration, EC50, and the Hill coefficient, n. Y0 and Y ma x are the fractional membrane activities in absen ce o f p eptide and at max imal peptide concent rations. For peptides with too little activity to determine Y ma x ex perimentall y, Y max was fixed at 1.0 during fitting.
(§7) YY = YY0 + YYmax − YY0nn (3)
(§8) Vesicle preparation. 100 µ L of a solution of 25 mg/ml of POPC in chloroform or 200 µ L of a solution of 25 mg/ml of EYPC in chloroform was purged with a stream of nitrogen and dried overnight under high vacuum. The thin lipid film was reh ydrated with 1ml of reh yd ration buffer (= inside buffer, see Table S3 ) b y agitation at room temperature for 30 min and then subjected to 5 freeze- thaw cycles (freezing in liquid nitrogen and thawing at 40 °C).
(§9) Subsequently, the liposome suspension was extruded ≥ 15 times through a polycarbonate membrane (pore size 100 nm). Extravesicular components were then removed by size exclusion chromatography using a 1.5 × 12 cm polyprop ylene column (Bio- Rad, German y) with 1.0 g Sephad ex G-50 (medium) as a stationa r y ph ase and the resp ectiv e outside buffer for […]
(§10) Ta b l e S 3. Combinations of inside and outside buffer for CF -LUVs.
(§11) No. Lipid Inside buffer = rehydration buffer Outside buffer
(§12) (1) EYPC 10 mM Hepes, 50 mM CF, pH 7.5 10 mM Hepes, 97 mM NaCl, pH 7.5
(§13) (2) POPC 10 mM Hepes, 50 mM CF, pH 7.5 10 mM Hepes, 97 mM NaCl, pH 7.5
(§14) (3) POPC 10 mM Hepes, 50 mM CF, pH 7.5 10 mM Hepes, 175 mM glucose, pH 7.5 [a] [a] Glucose b uffers (183 mOsm/L at 25 °C) were used within one week after preparation.
(§15) Vesicle quality control. The size distribution of the liposomes was confirmed by DLS to be unimodal and avera ge ve sicles diameters wer e in the ran ge from 115 to 130 nm. The final lipid content in the liposome s uspension after prep ar ation and sep aration w as det ermined b y NMR. CF vesicles are comparabl y leak y and cont ain minor amounts of ex travesi cular CF after a f ew days. When the fluores cence chan ge after vesicl e lys is b y addition of 20 µ L 1.6% (wt/vol) TX-100 was less than a factor of four, the vesicle suspension was no longer used.
(§16) Assay protocol. An appropriate volume of the liposome stock solutions was diluted to 2 mL with outside buffer in a 10 ×10 mm quartz glass cuvette to afford a phospholipid concentration of 25 µM. The cuvette was placed into a thermostatted fluorimeter sample holder and gentl y stirred at 300 rpm at (25.0± 0.1) °C. Subsequentl y, the time-dependent change in fluorescence intensity (C F: λ exc = 492 nm, λ em = 517 nm) was recorded during addition of 20 µL peptide stock solution of var ying concentrations at 60 s and 20µ L of a calibration cocktail (1. 6% […]
intensities, If(t), using equation (1) and the concentration- dependent fractional intensities just before the addition of th e calibration co cktail, I f, w ere then normaliz ed to fr actional membran e activities, Y, using equation (2). The fractional membrane activities, Y, were subsequently plotted against the peptide concentration, c, and anal ysed using the Hill equation (3) to obtain […]

[2] = CF dye efflux assay, EYPC vesicles; format: biochemical; details: 97 mM NaCl, pH 7.5, 25 °C, n = 1; for Y30µM, membrane activity, CF assay: 30 µM peptide, 25 µM EYPC⸧CF-LUVs (inside 50 mM CF) in 10 mM Hepes, fluorescence λexc 492/λem 517 nm, peptide at 60 s, TX-100 at 600 s, fractional activity
Excerpt: as §1, §2, §3, §4, §5, §6, §7, §8, §9, §10, §11, §12, §13, §14, §15
as §16, with “The cuvette was placed into a thermostatted fluorimeter sample holder and gentl y stirred at 300 rpm at (25.0± 0.1) °C.” left out

[3] = single-channel, 25 µM POPC⸧CF-LUVs, inside 10 mM Hepes, 50 mM CF, pH 7.5, outside 10 mM Hepes, 175 mM glucose, pH 7.5, n = 1, read-out: EC50, CF assay in glucose-containing buffer
[4] = 25 µM lipid, EYPC⊃CF-LUVs, 10 mM Hepes, fractional activity at 590 s, Hill fit, error = SD of fit

SMILES	EC50 [1, 3] [µM]	EC50 ([1]; 25 µM lipid, POPC⊃CF-LUVs, 10 mM Hepes, 97 mM NaCl, pH 7.5, 25 °C, fractional activity at 590 s, Hill fit, n = 1 (Table S5), read-out: EC50, CF assay, POPC) [µM]	EC50 [2, 4] [µM]	Y30µM, membrane activity, CF assay [2]	EC50, CF assay, isosmotic ([1]; 25 µM POPC⸧CF-LUVs diluted into 10 mM Hepes, 97 mM NaCl, pH 7.5, 25 °C, fractional activity at 590 s, n = 1 (Table S6, Figures S17, S19))	EC50, CF assay, POPC ([1]; 25 µM lipid, POPC⊃CF-LUVs, 10 mM Hepes, 97 mM NaCl, pH 7.5, 25 °C, fractional activity at 590 s, Hill fit, n = 1 (Table S5))	EC50, CF assay, EYPC [2, 4]
CC[C@H](C)[C@H](NC(=O)[C@H](CCCCN)NC(=O)[C@H](CCCCN)NC(=O)[C@H](C)NC(=O)[C@H](CC(C)C)NC(=O)[C@H](C)NC(=O)[C@H](C)NC(=O)[C@H](CC(C)C)NC(=O)[C@H](C)NC(=O)[C@H](CCCCN)NC(=O)[C@H](CC(C)C)NC(=O)[C@H](CC(N)=O)NC(=O)[C@@H](NC(=O)[C@H](CCCCN)NC(=O)CNC(=O)[C@H](CC(C)C)NC(=O)[C@H](CC(C)C)NC(=O)[C@H](Cc1ccc(O)cc1)NC(=O)CNC(=O)[C@H](C)N)[C@@H](C)CC)C(=O)N[C@@H](CC(C)C)C(=O)O [TP10]	0.12 ± 0.02	–	–	–	–	–	–
CC(C)[C@H](NC(=O)[C@H](CCCCN)NC(=O)[C@H](CCCNC(=N)N)NC(=O)[C@H](CCCCN)NC(=O)[C@H](CCCCN)NC(=O)[C@H](CCCCN)NC(=O)[C@@H]1CCCN1C(=O)[C@H](CCC(N)=O)NC(=O)[C@H](CO)NC(=O)[C@H](Cc1c[nH]c2ccccc12)NC(=O)[C@H](CC(=O)O)NC(=O)[C@@H](NC(=O)[C@H](Cc1c[nH]c2ccccc12)NC(=O)[C@H](Cc1c[nH]c2ccccc12)NC(=O)[C@@H](NC(=O)[C@H](CC(=O)O)NC(=O)[C@H](Cc1c[nH]c2ccccc12)NC(=O)[C@H](Cc1c[nH]c2ccccc12)NC(=O)[C@@H](NC(=O)[C@H](CC(=O)O)NC(=O)[C@@H](N)CCCCN)[C@@H](C)O)[C@@H](C)O)[C@@H](C)O)C(=O)O [Pep‐1] (H-KDTWWDTWWTDWSQPKKKRKV-OH)	540 ± 90	114 ± 5	35 ± 1	0.46	–	–	–
CC[C@H](C)[C@H](NC(=O)[C@H](CCCCN)NC(=O)[C@@H](NC(=O)[C@@H](N)CCC(N)=O)[C@@H](C)CC)C(=O)N[C@@H](Cc1c[nH]c2ccccc12)C(=O)N[C@@H](Cc1ccccc1)C(=O)N[C@@H](CCC(N)=O)C(=O)N[C@@H](CC(N)=O)C(=O)N[C@@H](CCCNC(=N)N)C(=O)N[C@@H](CCCNC(=N)N)C(=O)N[C@@H](CCSC)C(=O)N[C@@H](CCCCN)C(=O)N[C@@H](Cc1c[nH]c2ccccc12)C(=O)N[C@@H](CCCCN)C(=O)N[C@@H](CCCCN)C(=O)O (H-QIKIWFQNRRMKWKK-OH)	–	–	–	0.14	too low to determine	too low to determine	too low to determine
CC(C)C[C@H](NC(=O)[C@H](CC(C)C)NC(=O)[C@H](CCCNC(=N)N)NC(=O)[C@@H](N)CC(C)C)C(=O)N[C@@H](CCCNC(=N)N)C(=O)N[C@@H](Cc1c[nH]c2ccccc12)C(N)=O [LRLLRW] (H-LRLLRW-NH2)	101 ± 9	–	–	0.23	–	–	–
